Measured values reported in patent publication US9683018B2, “Disulfide cyclic polypeptides for the treatment of heart failure” (priority 2013, dated 2017).
Bridge positions count the residues as written; N and C are the ends. Square brackets hold non-standard residues; d marks the D form. Peptide text beside a SMILES is read from it. * marks the point of attachment. pGlu = O=C1CC[C@@H](C(=O)O)N1; NHPhenethyl = c1ccc(CCN*)cc1; d(hCys) = N[C@H](CCS)C(=O)O; hCys = N[C@@H](CCS)C(=O)O; Nle = CCCC[C@H](N)C(=O)O; Aib = CC(C)(N)C(=O)O

Columns and labels:
[1] = Plasma stability assay (LC-MS); assay type: in vitro ADME; conditions: male, Sprague-Dawley, heparinized rat plasma, 37° C., Table 3, read-out: Plasma stability t½
Procedure: Working solution: 1 mg/mL test article is prepared in Milli-Q water
Extraction solution: Methanol:Acetonitrile:Water (1:1:1) with 0.1% Formic Acid and 400 ng/mL Glyburide.
Plasma: Male Sprague-Dawley rat plasma (with sodium heparin), purchased from Bioreclamation LLC (Liverpool, N.Y.).
Test article was prepared in one of the following biological matrices: heparinized rat plasma, heparinized rat whole blood or lung homogenate. The plasma and whole blood sample was prepared at 5000 ng/mL by adding 5 uL of 1 mg/mL Working solution to 995 uL of rat plasma or whole blood. Lung homogenate samples were prepared by diluting lung homogenate to 1 mg/ml protein concentration with phosphate buffered saline (PBS), followed by addition of 5 uL Working solution to 995 uL diluted lung homogenate. The samples were incubated at 37° C. with gentle shaking (65˜75 rpm) in a water bath incubator. At times 0 min, 5 min, 15 min, 30 min, 60 min, 120 and 240 min, 25 uL aliquots of incubation samples were transferred to 96-well plate and immediately protein precipitated using 150 uL of Extraction solution. After completion of incubation experiment, the sample plate was centrifuged at 4000 rpm at 4° C. for 10 minutes. Afterwards, a pipetting device (Tecan Temo) was used to transfer the supernatants to another plate and add 50 uL of water to all samples. The plate was vortexed prior to LC-MS analysis.
LC-MS Analysis of stability samples
HPLC: Agilent 1290 HPLC with autosampler
Column: MAC-MOD ACE C18, 3 μm, 30 mm×2.1 mm i.d.
Mobile phase A: 0.1% Formic acid in acetonitrile
Mobile phase B: 0.1% Formic acid in water

[2] = target: T1, hAPJ (Homo sapiens, UniProt P35414); test: hAPJ Calcium Flux Assay; assay type: cell-based; conditions: Chem-5 APJ stable cells, FLIPR calcium flux; read-out: hAPJ Ca2+ Flux EC50
T1 sequence (P35414 1-380): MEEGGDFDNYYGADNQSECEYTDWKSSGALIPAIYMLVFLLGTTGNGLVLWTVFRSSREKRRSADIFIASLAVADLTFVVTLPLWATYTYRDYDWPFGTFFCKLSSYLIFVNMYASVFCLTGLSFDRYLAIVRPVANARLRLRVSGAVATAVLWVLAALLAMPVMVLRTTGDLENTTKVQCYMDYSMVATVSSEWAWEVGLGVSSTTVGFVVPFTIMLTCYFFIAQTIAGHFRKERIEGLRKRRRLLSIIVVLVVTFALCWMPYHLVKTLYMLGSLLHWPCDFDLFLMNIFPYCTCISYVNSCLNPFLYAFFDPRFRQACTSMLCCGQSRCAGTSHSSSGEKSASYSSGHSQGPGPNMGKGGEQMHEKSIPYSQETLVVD
Procedure: Chem-5 APJ stable cells (Millipore # HTS068C) were plated in 384-well format with 10,000 cells/well in 25 ul growth media, then grown 24 hours in a 37° C. tissue culture incubator. One hour before the assay, 25 ul/well FLIPR Calcium 4 dye (Molecular Devices R8142) with 2.5 mM probenecid was added, and cells were incubated one hour in a 37° C. tissue culture incubator. Peptides were solubilized in HBSS, HEPES & 0.1% BSA buffer, and serially-diluted 10-fold, from 50 uM to 5 pM, in triplicate. FLIPR Tetra was used to add peptide to the cells with dye (1:5, for final peptide concentrations ranging from 10 uM to 1 pM). FLIPR dye inside the cells emitted fluorescence after binding to calcium, while fluorescence from outside the cells was masked. Fluorescence was measured using 470-495 excitation and 515-575 emission wavelengths on the FLIPR Tetra. Readings were done for 3 minutes total, beginning 10 seconds before the peptide addition. Maximum-minimum values were calculated and plotted for each peptide concentration, and GraphPad prism software was used to calculate EC50 values at the curve inflection points, for calcium flux stimulation by peptides.

[3] = in vitro; conditions: rat, plasma
Procedure: The calcium flux protocol described above was followed, with the following changes. The peptides were also incubated with 5% rat plasma (Bioreclamation # [sequence]-M, Na Heparin-treated). Readings were taken at time points t0 and t24 hrs, after incubation in a 37° C. tissue culture incubator. Peptide plasma half-life in minutes was estimated by calculating the following:
2) Calculate slope of value above and

[4] = Surrogate Activity based Plasma stability t½
[5] = Surrogate activity-based Plasma stability t½

Compound	half-life at 5000 ng/mL [1]	EC50 [2]	half-life [3, 4]	half-life [3, 5]
CCCC[C@@H]1NC(=O)[C@@H]2CCCN2C(=O)[C@@H](NC(=O)[C@H](CCCCN)NC(=O)[C@H](Cc2c[nH]cn2)NC(=O)[C@H](CO)NC(=O)[C@H](CC(C)C)NC(=O)[C@H](CCCNC(=N)N)NC(=O)[C@@H]2CCCN2C(=O)[C@H](CCCNC(=N)N)NC(=O)[C@@H]2CCC(=O)N2)CSSC[C@@H](C(=O)N[C@@H](Cc2ccccc2)C(=O)O)NC1=O [Example 14, pE-R-P-R-L-S-H-K-C*-P-Nle-C*-F-OH] ([pGlu]RPRLSHKCP[Nle]CF-OH; disulfide 9-12)	65 min	0.81 nM	29 min	29 min
CCCC[C@@H]1NC(=O)[C@@H]2CCCN2C(=O)[C@@H](NC(=O)[C@H](CCCCN)NC(=O)[C@H](Cc2c[nH]cn2)NC(=O)[C@@H](C)NC(=O)[C@H](CC(C)C)NC(=O)[C@H](CCCNC(=N)N)NC(=O)[C@@H]2CCCN2C(=O)[C@H](CCCNC(=N)N)NC(=O)[C@@H]2CCC(=O)N2)CSSC[C@@H](C(=O)N[C@H](Cc2ccccc2)C(=O)O)NC1=O [Example 17, pE-R-P-R-L-a-H-K-C*-P-Nle-C*-f-OH] ([pGlu]RPRL[dA]HKCP[Nle]C[dF]-OH; disulfide 9-12)	505 min	1.9 nM	904 min	904 min
CCCC[C@@H]1NC(=O)[C@@H]2CCCN2C(=O)[C@@H](NC(=O)[C@H](CCCCN)NC(=O)C(C)(C)NC(=O)[C@H](CO)NC(=O)[C@H](CC(C)C)NC(=O)[C@H](CCCNC(=N)N)NC(=O)[C@@H]2CCCN2C(=O)[C@H](CCCNC(=N)N)NC(=O)[C@@H]2CCC(=O)N2)CSSC[C@@H](C(=O)NCCc2ccccc2)NC1=O [Example 15, pE-R-P-R-L-S-Aib-K-C*-P-Nle-C*-NH(Phenethyl)] ([pGlu]RPRLS[Aib]KCP[Nle]C-NHPhenethyl; disulfide 9-12)	42 min	4 nM	41 min	41 min
CCCC[C@@H]1NC(=O)[C@@H]2CCCN2C(=O)CNC(=O)[C@H](CCCCN)NC(=O)[C@H](Cc2c[nH]cn2)NC(=O)[C@H](CO)NC(=O)[C@@H](NC(=O)[C@H](CCCNC(=N)N)NC(=O)[C@@H]2CCCN2C(=O)[C@H](CCCNC(=N)N)NC(=O)[C@@H]2CCC(=O)N2)CSSC[C@@H](C(=O)N[C@@H](Cc2ccccc2)C(=O)O)NC1=O [Example 1, pE-R-P-R-C*-S-H-K-G-P-Nle-C*-F-OH] ([pGlu]RPRCSHKGP[Nle]CF-OH; disulfide 5-12)	169 min	0.74 nM	127 min	127 min
CCCC[C@@H]1NC(=O)[C@@H]2CCCN2C(=O)CNC(=O)[C@H](CCCCN)NC(=O)[C@@H](NC(=O)[C@H](CO)NC(=O)[C@H](CC(C)C)NC(=O)[C@H](CCCNC(=N)N)NC(=O)[C@@H]2CCCN2C(=O)[C@H](CCCNC(=N)N)NC(=O)[C@@H]2CCC(=O)N2)CCSSCC[C@H](C(=O)N[C@@H](Cc2ccccc2)C(=O)O)NC1=O [Example 6, pE-R-P-R-L-S-hC*-K-G-P-Nle-(D-hC)*-F-OH] ([pGlu]RPRLS[hCys]KGP[Nle][d(hCys)]F-OH; disulfide 7-12)		92.8 nM		12.5 min
CCCC[C@@H]1NC(=O)[C@@H]2CCCN2C(=O)CNC(=O)[C@H](CCCCN)NC(=O)[C@@H](NC(=O)[C@H](CO)NC(=O)[C@H](CC(C)C)NC(=O)[C@H](CCCNC(=N)N)NC(=O)[C@@H]2CCCN2C(=O)[C@H](CCCNC(=N)N)NC(=O)[C@@H]2CCC(=O)N2)CSSC[C@@H](C(=O)N[C@@H](Cc2ccccc2)C(=O)O)NC1=O [Example 3, pE-R-P-R-L-S-C*-K-G-P-Nle-C*-F-OH] ([pGlu]RPRLSCKGP[Nle]CF-OH; disulfide 7-12)	81 min	128 nM	26 min	26 min
